Consider two compounds from patent US9212396B2, “Materials and methods useful for affecting tumor cell growth, migration and invasion” (The Ohio State University, priority 2009, dated 2015).

Assay [1] has as its system HCC-derived cell lines. In words: Proliferation (MTT) assay on HCC-derived cell lines exposed to TRAIL. The format is cell-based, human. Particulars: TRAIL 400 ng/ml 24 h. The method, then:
Cells were plated in 96-well plates in triplicate and incubated at 37° C. in a 5% CO2 incubator. Super-Killer TRAIL (Alexis Biochemicals) was used for 24-48 h at 400 ng ml-1. Cell viability was examined with 3-(4,5-dimethylthiazol-2-yl)-2,5-dipheniltetrazolium bromide (MTT)-Cell Titer 96 AQueous One Solution Cell Proliferation Assay (Promega), according to the manufacturer's protocol. Metabolically active cells were detected by adding 20 μl of MTT to each well. After 1 h of incubation, the plates were analyzed in a Multilabel Counter (Bio-Rad Laboratories). Apoptosis was assessed using Annexin V-FITC apoptosis detection kits followed by flowcytometric analysis and caspase 3/7 activity. Cells were seeded at 1.8106 cells per 100 mm dish, grown overnight in 10% FBS/RPMI, washed with phosphate-buffered saline (PBS) and then treated for 24 h with 400 ng/ml TRAIL. Following incubation, cells were washed with cold PBS and removed from the plates by trypsinization. […] Statistical analysis was done using two sample t test, assuming equal variance, and P value was calculated based on two-tailed test. For detection of caspase 3/7 activity, cells were cultured in 96-well plates and treated with TRAIL 400 ng/ml and analyzed using Caspase-Glo 3/7 Assay kit (Promega) according to the manufacturer's instructions. Continuous variables are expressed as mean values±standard deviation (s.d.).

Assay [2] relates to H460 xenograft. The assay can be described thus: H460 xenograft in nude mice treated with TRAIL. The format is in vivo. Particulars: H460 shPTEN and shTIMP3 vs sh control, TRAIL 10 mg/kg/d ip, 35 days. As for the experimental part: (§1) Animal studies were performed according to institutional guidelines. NCI-H460 cells were stable transfected by using shPTEN and TIMP3 plasmids (Santa Cruz); Calu-1 cells were stable transfected with shMET. After the selection in puromycin for 10 days 5 106 (H460) or 7106 (Calu-1) viable cells were injected s.c. into the right flanks of 6-wk-old male nude mice (Charles RiverBreeding Laboratories, Wilmington, Mass.). Treatment started five days (H460 xenograft) or ten days (Calu-1 xenograft) from tumor cell inoculation by daily ip injections of TRAIL/Apo2 (10 mg/kg/d) or vehicle (PBS) for two cycles of 5 days. Tumor size was assessed every five days by a digital caliper. The tumor volumes were determined by measuring the length (1) and the width (w) and calculating the volume (V=lw2/2). 35 days after injection, mice were sacrificed and tumors samples were analyzed by western blot for PTEN, TIMP3 and MET expression. Statistical significance between control and treated animals was evaluated by using Student's t test. Animal experiments were conducted after approval of the Institutional animal care and use committee, Ohio State University.

For assay [3], the system named is Calu-1 xenograft. The assay can be described thus: Calu-1 xenograft in nude mice treated with TRAIL. The conditions noted are these: Calu-1 shMET vs sh control, TRAIL 10 mg/kg/d ip. The format is in vivo. As for the experimental part:
as §1

In assay [4] the test system is miR-221 and miR-222. In words: qRT-PCR of miR-221 and miR-222 in GTL16 cells. The class given is cell-based, human. The conditions noted are these: GTL-16 cells, MET inhibition, compared with the untreated cells. The method, then:
Real-time PCR was performed using a standard TaqMan PCR Kit protocol on an Applied Biosystems 7900HT Sequence Detection System (Applied Biosystems). The 10 μl PCR reaction included 0.67 μl RT product, 1 μl TaqMan Universal PCR Master Mix (Applied Biosystems), […]. The reactions were incubated in a 96-well plate at 95° C. for […], followed by 40 cycles of 95° C. for 15 s and 60° C. for 1 min. All reactions were run in triplicate. The threshold cycle (CT) is defined as the fractional cycle number at which the fluorescence passes the fixed threshold. The comparative CT method for relative quantization of gene expression (Applied Biosystems) was used to determine miRNA expression levels. The y axis represents the 2(-CT), or the relative expression of the different miRs. miRs expression was calculated relative to U44 and U48 rRNA and multiplied by 104. Experiments were carried out in triplicate for each data point, and data analysis was performed by using software (Bio-Rad).
A general note: Real-time PCR tracks product formation cycle by cycle.

Assay [5] deals with PTEN and TIMP3. In words: Western blot of PTEN and TIMP3 in GTL16 cells. The format is cell-based, human. The conditions noted are these: GTL16 cells treated for 24 h with 4 μM. The method, then: Total proteins from NSCLC and HCC cells were extracted with radioimmuno-precipitation assay (RIPA) buffer ([…] NaCl, […] Tris-HCl, pH 7.5, 1% Triton, 0.1% SDS, 0.1% sodium deoxycholate and 1% Nonidet P40). Sample extract (50 μg) was resolved on 7.5-12% SDS-polyacrylamide gels (PAGE) using a mini-gel apparatus (Bio-Rad Laboratories) and transferred to Hybond-C extra nitrocellulose. Membranes were blocked for 1 h with 5% nonfat dry milk in Tris-buffered saline containing 0.05% Tween 20, incubated overnight with primary antibody, washed and incubated with secondary antibody, and visualized by chemiluminescence.
The following primary antibodies were used: anti-PTEN, anti-c-Jun, anti-p-c-Jun, anti-Fos, anti-p-JNK, anti-MMP3, anti-Mc1-1 (Santa Cruz), anti-TIMP3 (Millipore) anti-PI3K (BD Biosciences), anti-ERKs, anti-phospho ERKs, anti-AKT, anti-p-AKT, anti-GSK3b, anti-p-GSK3b (Ser9), anti-PAK1 anti-caspase-8,-3 and -9, anti-PARP, anti-cytochrome c (Cell signaling) and anti-MMP9, anti-FADD (Abcam), anti-1-actin antibody (Sigma). A secondary anti-rabbit or anti-mouse immunoglobulin G (IgG) antibody peroxidase conjugate (Chemicon) was used.
On the technique in general: In western blotting, separated proteins are transferred to a membrane and probed.

For the compound TRAIL, the “cell proliferation / TRAIL-induced cell death (MTT)” value in assay [1] (HepG2, Sk-Hep1 and Huh 7, low miR-221-miR-222 expression) is on record as “underwent TRAIL-induced cell death”; in assay [1] (PLC/PRF-5 and Snu-387, high miR-221-miR-222 expression), “did not display sensitivity”. Moreover, the “tumor engraftment size / TRAIL resistance” value in assay [2] is “increases TRAIL resistance in vivo”. Besides, the “tumor growth / sensitivity to TRAIL” value in assay [3] is “more sensitive to TRAIL inducing apoptosis”.

As to `Cc1[nH]c(/C=C2\C(=O)Nc3ccc(S(=O)(=O)N(C)c4cccc(Cl)c4)cc32)c(C)c1C(=O)N1CCN(C)CC1` [SU11274], the “miR-221 and miR-222 downregulated (qRT-PCR)” value in assay [4] is reported as “about 40%”. Also, the “miR-221 and miR-222 targets (PTEN, TIMP3) expression levels, western blot” value in assay [5] was “increased miR-221 and miR-222 targets expression levels”.
